Experimental data reported in US4613598A, “Piperazine derivatives and their acid addition salts” (Mitsubishi Chemical Industries Limited, priority 1984, dated 1986).
Where a name gives a salt, the structure may show the parent alone.

Columns and labels:
[1] = test system: spontaneous hypertensive rats; assay: Hypotensive activity in non-narcotized, heart-catheterized spontaneous hypertensive rats; assay type: in vivo; settings: Rattus norvegicus, oral, lowest blood pressure during 6 hours after administration, read-out: Hypotensive ratio
Procedure: Hypotensive activity As the experimental animal, spontaneous hypertensive rats 5 to 7 months after birth with a body weight of 300 to 370 g were used. The blood pressure and the heart beat of the non-narcotized, heart-catheterized rats were operatively determined to calculate the averages in blood pressure and heart beat prior to the administration of the present compound. Successively during 6 hours after orally administering the present compound, the blood pressure and the heart beat were determined to calculate the hypotensive ratio by the following formula: [formula] wherein X is the average in blood pressure before administration; and Y is the value of the lowest blood pressure after the administration.

[2] = Acute toxicity (LD50, Litchfield-Wilcoxon method), oral administration to mouse; settings: in vivo
Procedure: The present compound was orally administered to mouse and the acute toxicity value (LD50) was calculated according to Litchfield-Wilcoxonmethod.

COc1ccc(C(O)CN2CCN(c3ccccc3)CC2)cc1S(N)(=O)=O (centres unmarked) [Control 1, reference compound]
inhibition in vivo at 1 mg/kg [1]: 10.5%
inhibition in vivo at 10 mg/kg [1]: 2.5%

COc1ccccc1N1CCN(CCCCC(=O)c2ccc([S+](C)[O-])c(S(N)(=O)=O)c2)CC1 (centres unmarked) [Compound No. 7, 5-[5-[4-(2-methoxyphenyl)-1-piperazinyl]valeryl]-2-methylsulfinyl-benzenesulfonamide]
inhibition in vivo at 1 mg/kg [1]: 8.9%
inhibition in vivo at 3 mg/kg [1]: 17.5%
inhibition in vivo at 10 mg/kg [1]: 31.3%

COc1ccccc1N1CCN(CCCCC(=O)c2ccc(SC)c(S(N)(=O)=O)c2)CC1 [Compound No. 6, 5-[5-[4-(2-methoxyphenyl)-1-piperazinyl]valeryl]-2-methylthio-benzenesulfonamide]
LD50 [2]: > 3000 mg/kg
inhibition in vivo at 1 mg/kg [1]: 16.1%
inhibition in vivo at 3 mg/kg [1]: 24.3%
inhibition in vivo at 10 mg/kg [1]: 23%

NC(=O)c1cc(C(=O)CN2CCN(c3ccccc3)CC2)ccc1O [Control 2, 5[2(4-phenyl-1-piperazinyl)acetyl]salicylamide, reference compound]
inhibition in vivo at 1 mg/kg [1]: 9.9%
inhibition in vivo at 3 mg/kg [1]: 13.7%
inhibition in vivo at 10 mg/kg [1]: 6.6%

COc1ccccc1N1CCN(CCCCC(=O)c2ccc([S+](C)[O-])c(NC(N)=O)c2)CC1 (centres unmarked) [Compound No. 35, 5-[5-[4-(2-methoxyphenyl)-1-piperazinyl]valeryl]-2-methylsulfinyl-N-carbamoylaniline]
LD50 [2]: > 3000 mg/kg
inhibition in vivo at 0.3 mg/kg [1]: 16.5%
inhibition in vivo at 1 mg/kg [1]: 16.1%
inhibition in vivo at 3 mg/kg [1]: 25.6%
inhibition in vivo at 10 mg/kg [1]: 47.9%

COc1ccc(C(=O)CCCCN2CCN(c3ccccc3OC)CC2)cc1NS(C)(=O)=O [Compound No. 29, 5-[5-[4-(2-methoxyphenyl)-1-piperazinyl]valeryl]-2-methoxy-N-methanesulfonylaniline dihydrochloride]
inhibition in vivo at 1 mg/kg [1]: 22.8%
inhibition in vivo at 3 mg/kg [1]: 37.3%

O=C(O)c1cc(C(O)CCCCN2CCN(c3ccccn3)CC2)ccc1O (centres unmarked) [Compound No. 17, 5-[5-[4-(2-pyridyl)-1-piperazinyl]-1-hydroxypentyl]salicylic acid]
inhibition in vivo at 3 mg/kg [1]: 21.1%
inhibition in vivo at 10 mg/kg [1]: 15.7%

COc1ccccc1N1CCN(CCCCC(=O)c2ccc(OC)c(S(N)(=O)=O)c2)CC1 [Compound No. 2, 5-[5-[4-(2-methoxyphenyl)-1-piperazinyl]valeryl]-2-methoxy-benzenesulfonamide dihydrochloride]
inhibition in vivo at 0.3 mg/kg [1]: 10.5%
inhibition in vivo at 1 mg/kg [1]: 34.6%
inhibition in vivo at 3 mg/kg [1]: 19.7%

COc1ccccc1N1CCN(CCCCC(=O)c2ccc3c(c2)NC(=O)CCO3)CC1 [Compound No. 41, 7-[5-[4-(2-methoxyphenyl)-1-piperazinyl]valeryl]-2,3,4,5-tetrahydro-1,5-benzoxazepine-4-one]
inhibition in vivo at 0.3 mg/kg [1]: 25.9%
inhibition in vivo at 1 mg/kg [1]: 33%
inhibition in vivo at 3 mg/kg [1]: 35.6%

COc1ccccc1N1CCN(CCCCC(=O)c2ccc(O)c(NC(C)=O)c2)CC1 [Compound No. 23, 5-[5-[4-(2-methoxyphenyl)-1-piperazinyl]valeryl]-2-hydroxyacetanilide]
inhibition in vivo at 3 mg/kg [1]: 36.5%

NC(=O)c1cc(C(=O)CCCCN2CCN(c3ccccc3Cl)CC2)ccc1O [Compound No. 13, 5-[5-[4-(2-chlorophenyl)-1-piperazinyl]valeryl]salicylamide]
inhibition in vivo at 3 mg/kg [1]: 19.7%
inhibition in vivo at 10 mg/kg [1]: 16.5%

COc1ccccc1N1CCN(CCCCC(=O)c2ccc(O)c(C(N)=O)c2)CC1 [Compound No. 12, 5-[5-[4-(2-methoxyphenyl)-1-piperazinyl]valeryl]-salicylamide]
LD50 [2]: > 3000 mg/kg
inhibition in vivo at 3 mg/kg [1]: 35.2%

COc1ccc(C(=O)CCCCN2CCN(c3ccccc3OC)CC2)cc1NC(N)=O [Compound No. 26, 5-[5-[4-(2-methoxyphenyl)-1-piperazinyl]valeryl]-2-methoxy-N-carbamoylaniline]
LD50 [2]: 2700 mg/kg
inhibition in vivo at 3 mg/kg [1]: 31.8%

COc1ccccc1N1CCN(CCCCC(=O)c2ccc(SC)c(NC(N)=O)c2)CC1 [Compound No. 34, 5-[5-[4-(2-methoxyphenyl)-1-piperazinyl]valeryl]-2-methylthio-N-carbamoylaniline]
inhibition in vivo at 1 mg/kg [1]: 17.6%
inhibition in vivo at 3 mg/kg [1]: 28.9%
inhibition in vivo at 10 mg/kg [1]: 39.9%

O=C1CSc2ccc(C(=O)CCCN3CCN(c4ccccn4)CC3)cc2N1 [Compound No. 49]
inhibition in vivo at 1 mg/kg [1]: 10.9%
inhibition in vivo at 3 mg/kg [1]: 45.7%

COc1ccc(C(O)CN2CCN(c3ccccc3)CC2)cc1NC(N)=O (centres unmarked) [Control 3, reference compound]
inhibition in vivo at 3 mg/kg [1]: 5.6%
inhibition in vivo at 10 mg/kg [1]: 9.4%
